Measurements from patent publication US20160000762A1, “IMPROVING COGNITIVE FUNCTION” (THE REGENTS OF THE UNIVERSITY OF CALIFORNIA, priority 2013, published 2016).

What was measured:
[1] = test system: insulin-degrading enzyme (IDE), neprilysin (NPE); assay: Levels of Aβ degradation enzymes (data not shown)
[2] = Tolerability of daily i.p. injections with necropsy; type: in vivo, wild-type mice; details: ≦50 mg/kg i.p. daily, 16 days
APP = molecular target: T1, APP (Rattus norvegicus, UniProt P08592); assay: Cell surface biotinylation, primary cortical neurons; type: cell-based; details: 5 μM, 24 h
T1 construct: BTA-EG4 increased endogenous cell surface APP levels in primary cortical neurons; endogenous in cells; host or cells: primary cortical neurons
Method: Cell surface biotinylation. COS7 cells were transiently transfected with APP for 24 hr in OPTI-MEM® containing 10% fetal bovine serum, and then treated with BTA-EG4 or control for 24 hr. After 24 hr, surface proteins were biotin labeled, immobilized with NeutrAvidin™ Gel and incubated 1 h with SDS-PAGE sample buffer, including 50 mM DTT, as described previously (Minami et al., 2010). Eluates were analyzed for APP by immunoblotting.
It is well known that the majority of a-secretase activity occurs on the cell surface, while β- and γ-secretase activity occurs primarily in the early and late endosomes (Huse et al., 2000; Reiss et al., 2006). Thus, if APP is present at the cell's surface, it is preferentially cleaved by α-secretase, resulting in decreased Aβ production. Therefore, we examined whether BTA-EG4 regulates cell surface expression of APP. To test this initially, COS7 cells were transfected with human APP and treated with BTA-EG4 (5 μM) or control (10% DMSO) for 24 h. […] Furthermore, BTA-EG4 increased endogenous cell surface APP levels in primary cortical neurons following 24 h of BTA-EG4 (5 μM) treatment compared with control (10% DMSO) treatment (FIG. 1I). In an alternative approach to examine the effect of BTA-EG4 on cell surface APP expression, we conducted live cell-surface immunostaining in primary hippocampal neurons.

Ras = assay: GST-Raf1-RBD pulldown of active Ras, primary cortical neurons; type: cell-based; details: 5 μM
Method: GST-pull-down assay. To measure levels of active Ras, brain lysate homogenized with Ral buffer (25 mM Tris-HCl, pH 7.4, 250 mM NaCl, 0.5% NP40, 1.25 mM MgCl2, and 5% glycerol) from APP transgenic, APP knockout, or wild-type mice was incubated with GST-Raf-RBD purified protein coupled with GLUTATHIONE SEPHAROSE™ (Amersham) overnight at 4° C. After 24 hours, pellets were washed with Ral buffer and western blotting was conducted with anti-Ras.
We next investigated the molecular mechanism by which BTA-EG4 may alter dendritic spine formation. Ras, a small GTPase, is involved in dendritic spine formation and synaptic delivery of AMPA receptors (Zhu et al., 2002; Lee et al., 2011). Moreover, abnormal Ras signaling is associated with neurodegenerative disease, causing cognitive impairments and learning deficits (Stornetta and Zhu, 2011). Thus, we initially investigated the effect of BTA-EG4 on Ras signaling by treating primary hippocampal neurons with BTA-EG4 (5 μM) or control for 24 hrs. […] Further, levels of active Ras were elevated following BTA-EG4 treatment (5 μM) in primary cortical neurons (FIG. 7C) and following BTA-EG4 treatment (30 mg/kg) in wild-type mice (FIG. 7D). We also examined whether BTA-EG4 can alter the activity of downstream Ras signaling proteins, including p-ERK and p-CREB.

dendritic spines = assay: Golgi staining, dendritic spine density and morphology in 3× Tg AD mice; type: in vivo
Method: Golgi staining and morphological analysis of dendritic spines. Dendritic spine density and morphology analyses in the brain were conducted using the FD RAPID GOLGISTAIN KIT™ (FD NeuroTechnologies, Ellicott City, Md., USA). Mouse brains were dissected, immersed in Solutions A and B (2 weeks, room temperature, dark conditions), and then transferred to Solution C (24 h, 4° C.). A VT1000S Vibratome (Leica, Bannockburn, Ill., USA) was then used to slice brains 150 μm thick. Bright-field microscopy acquired dendritic images by Axioplan 2 (Zeiss, Oberkochen, Germany). Scion image software (Scion Corporation, Frederick, Md., USA) allowed measurement of spine head width, spine length, and linear density of cortical layers II/III and CA1 of the hippocampus. Images were coded and analyzed blind to experimental conditions. To measure dendritic spine density, we included spines from 0.2 to 2 μmin length, with at least 25 apical oblique (AO) and basal (BS) dendritic observations averaged from each animal (n=4-5 brains for 2-3 months old/group and 6-10 months old/group, n=3 brains for 13-16 months old/group). To measure spine morphology, we included spines up to 1.4 μm in width and 3.2 μm in length.
BTA-EG4 alters dendritic spine density in the cortex and hippocampus. […] In the present study, we investigated whether BTA-EG4 improves dendritic spine density in a mouse model of AD. For this study, we selected the 3× Tg AD mouse model due to its ability to model the progression of human AD (Oddo et al., 2003). […] To assess its effectiveness throughout disease progression, 2-3 month, 6-10 month, and 13-16 month old 3× Tg AD mice were injected with BTA-EG4 (30 mg/kg, i.p.) or vehicle (10% DMSO) daily for 2 weeks. The 2-week duration of treatment was selected because it increased dendritic spine density and improved memory in wild-type mice (Megill et al., 2013). After the treatment, we conducted Golgi staining to measure dendritic spine density (FIGS. 10A-10J, FIGS. 15A-15H and FIGS. 16A-16B).

[3] = Capule and Yang, 2012; Inbar et al., 2006; cited from earlier work
soluble Aβ 40 = assay: Aβ ELISA, 3× Tg AD mice; type: in vivo; details: 30 mg/kg daily, 2 weeks
Method: Aβ ELISA. Mouse brains were homogenized in tissue homogenization buffer containing 250 mM sucrose, 20 mM Tris base, protease, and phosphatase inhibitors. To measure soluble Aβ, DEA extraction was performed. Crude 10% homogenate was mixed with an equal volume of 0.4% diethylamine (DEA), sonicated, and ultracentrifuged for 1 hr at 100,000×g. The supernatant was collected and neutralized with 10% 0.5 M Tris, pH 6.8. Sensitive and specific ELISAs to rodent Aβ1-40 was purchased from IBL Transatlantic (Toronto, Canada) and conducted per the manufacturer's protocol.

T1 sequence (P08592 18-770): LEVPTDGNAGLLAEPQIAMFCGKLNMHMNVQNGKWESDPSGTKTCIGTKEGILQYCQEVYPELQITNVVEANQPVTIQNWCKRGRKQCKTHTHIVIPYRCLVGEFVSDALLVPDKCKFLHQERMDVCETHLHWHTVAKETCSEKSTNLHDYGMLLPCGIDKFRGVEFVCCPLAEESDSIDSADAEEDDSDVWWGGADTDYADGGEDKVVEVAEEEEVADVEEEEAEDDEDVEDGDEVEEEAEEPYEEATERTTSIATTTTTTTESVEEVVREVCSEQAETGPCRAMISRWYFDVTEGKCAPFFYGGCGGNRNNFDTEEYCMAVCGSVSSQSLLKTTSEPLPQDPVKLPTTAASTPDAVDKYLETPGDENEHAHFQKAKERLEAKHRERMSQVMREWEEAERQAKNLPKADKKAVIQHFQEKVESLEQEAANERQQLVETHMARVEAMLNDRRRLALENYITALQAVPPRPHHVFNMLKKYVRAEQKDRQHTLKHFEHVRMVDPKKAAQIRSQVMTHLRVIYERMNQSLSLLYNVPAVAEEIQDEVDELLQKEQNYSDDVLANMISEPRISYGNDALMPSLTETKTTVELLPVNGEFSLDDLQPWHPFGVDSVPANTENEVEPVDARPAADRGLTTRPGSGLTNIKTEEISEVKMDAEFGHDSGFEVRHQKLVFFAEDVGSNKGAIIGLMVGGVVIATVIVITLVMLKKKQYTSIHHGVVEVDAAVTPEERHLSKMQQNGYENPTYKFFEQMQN

BTA-EG4
levels of Aβ degradation enzymes (IDE, NPE) [1]: did not alter
necropsy findings [2]: no adverse effects on major organs
tolerability of daily injections [2]: well tolerated
endogenous cell surface APP levels (APP): increased
levels of active Ras (Ras): elevated
dendritic spine length (dendritic spines; 13-16 months): neither the width nor length of dendritic spines changed
dendritic spine width (dendritic spines; 13-16 months): neither the width nor length of dendritic spines changed
hippocampal spine density (dendritic spines; CA1, 13-16 months, 30 mg/kg daily, 2 weeks): only a trend toward an increase
dendritic spine width (dendritic spines; cortex and hippocampus, 6-10 months, 30 mg/kg): wider
dendritic spine length (dendritic spines; cortical layers II/III and hippocampus, 6-10 months, 30 mg/kg): longer
dendritic spine density (dendritic spines; cortical neurons, 13-16 months, 30 mg/kg i.p. daily, 2 weeks): improved
overall density of dendritic spines (dendritic spines; hippocampus CA1, 2-3 months, 30 mg/kg i.p. daily, 2 weeks): significantly increased
overall density of dendritic spines (dendritic spines; hippocampus CA1, 6-10 months, 30 mg/kg i.p. daily, 2 weeks): significantly increased
overall density of dendritic spines (dendritic spines; layers II/III of the cortex, 2-3 months, 30 mg/kg i.p. daily, 2 weeks): significantly increased
overall density of dendritic spines (dendritic spines; layers II/III of the cortex, 6-10 months, 30 mg/kg i.p. daily, 2 weeks): significantly increased
blood-brain barrier penetration [3]: can penetrate the blood-brain barrier
toxicity [3]: no toxicity
soluble Aβ 40 levels (soluble Aβ 40; 2-3 months): decrease
soluble Aβ 40 level (soluble Aβ 40; 6-10 months): without changes
soluble Aβ 40 level (soluble Aβ 40; 13-16 months): none of the measured parameters were significantly altered
